Data taken from PubChem BioAssay AID743434 (The Scripps Research Institute Molecular Screening Center, 2014).
pIC50: −log10 of the molar value. Activity calls are given as the source filed them. How the calls were made is not given here.

Molecular target: Sphingosine 1-phosphate receptor 3 (Homo sapiens) (UniProt Q99500)
Experiment: S1P3 receptor antagonists, late-stage follow-up, cell-based, fluorescence, dose response (AID 743434)
Details: S1P3-expressing cells, fluorescence antagonist assay

Chain of Sphingosine 1-phosphate receptor 3 (Homo sapiens) (Q99500 whole entry, looked up): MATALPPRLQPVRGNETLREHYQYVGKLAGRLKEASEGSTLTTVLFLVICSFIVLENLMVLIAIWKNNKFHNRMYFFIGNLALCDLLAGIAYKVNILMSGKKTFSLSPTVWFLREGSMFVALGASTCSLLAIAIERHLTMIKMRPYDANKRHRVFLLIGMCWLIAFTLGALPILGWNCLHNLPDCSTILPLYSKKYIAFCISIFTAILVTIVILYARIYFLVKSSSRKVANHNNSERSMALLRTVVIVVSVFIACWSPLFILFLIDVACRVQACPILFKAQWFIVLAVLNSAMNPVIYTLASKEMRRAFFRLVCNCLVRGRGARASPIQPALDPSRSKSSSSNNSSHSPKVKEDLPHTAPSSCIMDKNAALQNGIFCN

pIC50 | IC50 | Structure (SMILES)
6.67 | – | O=C(NC(c1ccc(Cl)cc1)c1nc(-c2ccccc2)no1)c1cccc(Cl)c1 (stereo not drawn)
5.55 | – | O=C(NC(c1ccccc1)c1nc(-c2ccccc2)no1)c1cccc(Cl)n1 (stereo not drawn)
5.62 | – | O=C(NC(c1ccccc1)c1nc(-c2ccccc2)no1)c1ccc(Cl)cc1 (stereo not drawn)
6.49 | – | N#Cc1ccc(C(=O)NC(c2ccc(Cl)c(Cl)c2)c2nc(-c3ccccc3)no2)cc1 (stereo not drawn)
6.67 | – | O=C(NC(c1ccc(Br)cc1)c1nc(-c2ccccc2)no1)c1ccc(Cl)c(Cl)c1 (stereo not drawn)
7.12 | – | O=C(NC(c1ccc(Cl)c(Cl)c1)c1nc(-c2ccccc2)no1)c1ccc(Cl)cc1 (stereo not drawn)
5.55 | – | O=C(NC(c1nc(-c2ccccc2)no1)C1CCOCC1)c1ccc(Cl)c(Cl)c1 (stereo not drawn)
5.54 | – | O=C(NC(c1ccc(Cl)cc1)c1nc(-c2ccccn2)no1)c1cccc(Cl)c1 (stereo not drawn)
5.24 | – | O=C(NC(Cc1ccccc1)c1nc(-c2ccccc2)no1)c1cccc(Cl)c1 (stereo not drawn)
– | inactive | O=C(c1cccc(Cl)c1)N(CCO)C(c1ccc(Cl)c(Cl)c1)c1nc(-c2ccccc2)no1 (stereo not drawn)
7.18 | – | O=C(NC(c1ccc(Cl)c(Cl)c1)c1nc(-c2ccccc2)no1)c1ccc(Cl)c(Cl)c1 (stereo not drawn)
6.41 | – | O=C(NC(c1ccc(Cl)cc1)c1nc(-c2ccccc2)no1)c1ccc(Cl)c(Br)c1 (stereo not drawn)
5.96 | – | O=C(NC(c1ccc(Cl)cc1)c1nc(-c2cccc(Cl)c2)no1)c1cccc(Cl)c1 (stereo not drawn)
7.28 | – | O=C(NC(c1ccc(Cl)c(Cl)c1)c1nc(-c2ccccc2)no1)c1cccc(Cl)c1 (stereo not drawn)
7.48 | – | O=C(NC(c1cccc(Cl)c1)c1nc(-c2ccccc2)no1)c1cc(Cl)cc(Cl)c1 (stereo not drawn)
– | inactive | Cc1ccc(C(=O)NC(c2ccccc2)c2nc(-c3ccccc3)no2)cc1 (stereo not drawn)
– | inactive | COc1ccc(C(=O)NC(c2ccccc2)c2nc(-c3ccccc3)no2)cc1 (stereo not drawn)
5.48 | – | O=C(NC(c1nc(-c2ccccc2)no1)C1CCCCC1)c1ccc(Cl)c(Cl)c1 (stereo not drawn)
